The values below come from patent US8808702B2, “Sulfide, sulfoxide and sulfone chalcone analogues, derivatives thereof and therapeutic uses thereof” (Temple University-of the Commonwealth System of Higher …, priority 2006, dated 2014).

Experiment [1] relates to DU145 (prostate cancer). As to the kind of experiment: Effect of compounds on tumor cell lines (assay of Latham et al.), DU145. The experiment is classed as cell-based. The following applies: DU145 cells, 96 hours after treatment, 1 μM to 100 μM; read-out: DU 145 potency (IC50). The protocol: (§1) The effect of the compounds of the invention on tumor cells was determined by the assay described by Latham et al., Oncogene 12:827-837 (1996). Tumor cells K562 (chronic myelogenous leukaemia) or DU145 (prostate cancer) were plated in 12-well dishes at a cell density of 2.5×10^4 cells well. The plated cells were treated 24 hours later with a compound of the invention dissolved in DMSO at multiple concentrations ranging from 1 μM to 100 μM. The plates were examined 96 hours later under an inverted microscope, Olympus CK-2 using an 10× objective, and compound activity was noted by physical observation. When necessary, the total number of viable cells was determined by trypsinizing the wells and counting the number of viable cells, as determined by trypan blue exclusion, using a hemacytometer.
(§2) The representative compounds listed in Tables 1-5 are shown by way of illustration, and are not intended to limit the scope of the invention. The compounds are prepared and tested by methods based on those described above, except that the compound of Table 5 was dissolved in DMSO at multiple concentrations ranging from 0.1 μM to 100 μM

In experiment [2] the test system is K562 (chronic myelogenous leukaemia). As to the kind of experiment: Effect of compounds on tumor cell lines (assay of Latham et al.), K562. The experiment is classed as cell-based. The following applies: K562 cells, 96 hours after treatment, 1 μM to 100 μM; read-out: K 562 potency (IC50). The procedure:
as §1, §2

As for `O=C(C(=Cc1c(O)cc(O)cc1O)SCc1ccc(Cl)cc1Cl)c1ccc(Cl)cc1` [Example 115], the results for the IC50 in experiment [1] and in experiment [2] were 25 to 50 µM and more than 100 µM, respectively.
On the same counts, the results for `COc1cc(OC)c(C=C(SCc2ccc(Cl)cc2Cl)C(=O)c2ccc(Cl)cc2)c(OC)c1` [Example 116] are 1 to 10 µM and 25 to 50 µM.
For the molecule `CCOc1cc(C=C(SCc2ccc(Cl)cc2Cl)C(=O)c2ccc(Cl)cc2)ccc1O` [Example 117], the IC50 in experiment [1] lay in the range of 10 to 25 µM; in experiment [2], 1 to 10 µM.
As to `O=C(C(=Cc1c[nH]c2ccccc12)SCc1ccc(Cl)cc1Cl)c1ccc(Cl)cc1` [Example 118], the IC50 in experiment [1] and in experiment [2] was 10 to 25 µM throughout.
Regarding `Cc1ccsc1C=C(SCc1ccc(Cl)cc1Cl)C(=O)c1ccc(Cl)cc1` [Example 119], the IC50 in experiment [1] fell in the range of 10 to 25 µM; in experiment [2] it was 50 to 100 µM.
In the case of `CN(C)c1ccc(C=C(SCc2ccc(Cl)cc2Cl)C(=O)c2ccc(Cl)cc2)cc1` [Example 120], the figures for the IC50 in experiment [1] and in experiment [2] were 50 to 100 µM and more than 100 µM, respectively.
On the same counts, the results for `O=C(C(=Cc1ccc(OCc2ccccc2)cc1)SCc1ccc(Cl)cc1Cl)c1ccc(Cl)cc1` [Example 121] are 1 to 10 µM and 10 to 25 µM.
On to `O=C(C(=Cc1ccc(Cl)cc1)SCc1ccc(Cl)cc1Cl)c1ccc(Cl)cc1` [Example 122], for which the concentration for half-maximal inhibition (IC50) in experiment [1] fell in the range of 10 to 25 µM; in experiment [2], 1 to 10 µM.
The matching figures for `O=C(C(=Cc1c[nH]c2ccc(Br)cc12)SCc1ccc(Cl)cc1Cl)c1ccc(Cl)cc1` [Example 123]: 10 to 25 µM and 1 to 10 µM.
`Cc1ccc(C=C(SCc2ccc(Cl)cc2Cl)C(=O)c2ccc(Cl)cc2)s1` [Example 124]: the IC50 in experiment [1] and in experiment [2] was 50 to 100 µM each time.
Take `COc1ccc(C=C(SCc2ccccc2Cl)C(=O)c2ccc(Cl)cc2)c(OC)c1OC` [Example 125]: the IC50 is 10 to 25 µM in experiment [1] and 1 to 10 µM in experiment [2].
On the same counts, the results for `COc1cc(OC)c(C=C(SCc2ccccc2Cl)C(=O)c2ccc(Cl)cc2)c(OC)c1` [Example 126] are 50 to 100 µM and 10 to 25 µM.
Take `CN(C)c1ccc(C=C(SCc2ccccc2Cl)C(=O)c2ccc(Cl)cc2)cc1` [Example 127]: the IC50 is more than 100 µM in experiment [1] and 50 to 100 µM in experiment [2].
The matching figures for `O=C(C(=Cc1ccc(OCc2ccccc2)cc1)SCc1ccccc1Cl)c1ccccc1Cl` [Example 128]: 1 to 10 µM and 1 to 10 µM.
The matching figures for `O=C(C(=Cc1ccc(Br)cc1)SCc1ccccc1Cl)c1ccc(Cl)cc1` [Example 129]: 10 to 25 µM and 1 to 10 µM.
As to `O=C(C(=Cc1ccc(Cl)cc1)SCc1ccccc1Cl)c1ccc(Cl)cc1` [Example 130], the IC50 in experiment [1] was 10 to 25 µM; in experiment [2], 1 to 10 µM.
Take `CCOc1ccc(C=C(SCc2ccccc2Cl)C(=O)c2ccc(Cl)cc2)cc1OC` [Example 131]: the results for the IC50 in experiment [1] and in experiment [2] were 50 to 100 µM and 1 to 10 µM, respectively.
For `O=C(C(=Cc1ccc(O)c([N+](=O)[O-])c1)SCc1ccccc1Cl)c1ccc(Cl)cc1` [Example 132], the IC50 in experiment [1] and in experiment [2] was 10 to 25 µM throughout.
With `COc1ccccc1C=C(SCc1ccccc1F)C(=O)c1ccc(Cl)cc1` [Example 133], the IC50 in experiment [1] was 10 to 25 µM; in experiment [2], 1 to 10 µM.
On the same counts, the results for `Cc1ccsc1C=C(SCc1ccccc1F)C(=O)c1ccc(Cl)cc1` [Example 134] are 50 to 100 µM and 50 to 100 µM.
As to `O=C(C(=Cc1c(O)cc(O)cc1O)SCc1ccc(Cl)c(Cl)c1)c1ccc(Cl)cc1` [Example 136], the IC50 in experiment [1] and in experiment [2] was 25 to 50 µM each time.
Consider `COc1cc(OC)c(C=C(SCc2ccc(Cl)c(Cl)c2)C(=O)c2ccc(Cl)cc2)c(OC)c1` [Example 137], for which the IC50 in experiment [1] and in experiment [2] was 10 to 25 µM in each case.
For `COc1ccc(OC)c(C=C(SCc2ccc(Cl)c(Cl)c2)C(=O)c2ccc(Cl)cc2)c1` [Example 138], the IC50 in experiment [1] and in experiment [2] was 10 to 25 µM each time.
Consider `O=C(C(=Cc1ccccc1OCc1ccccc1)SCc1ccc(Cl)c(Cl)c1)c1ccc(Cl)cc1` [Example 139], for which the IC50 in experiment [1] and in experiment [2] was 10 to 25 µM in each case.
For the molecule `CN(C)c1ccc(C=C(SCc2ccc(Cl)c(Cl)c2)C(=O)c2ccc(Cl)cc2)cc1` [Example 142], the IC50 in experiment [1] and in experiment [2] was 50 to 100 µM each time.
As for `CCOc1ccc(C=C(SCc2ccc(Cl)c(Cl)c2)C(=O)c2ccc(Cl)cc2)cc1OC` [Example 143], the figures for the IC50 in experiment [1] and in experiment [2] were 25 to 50 µM and 1 to 10 µM, respectively.
On the same counts, the results for `O=C(C(=Cc1ccc(O)cc1)SCc1ccc(Cl)c(Cl)c1)c1ccc(Cl)cc1` [Example 144] are 1 to 10 µM and 1 to 10 µM.
As to `O=C(C(=Cc1ccc(O)cc1O)SCc1cccc(Cl)c1)c1ccc(Br)cc1` [Example 145], the values for the IC50 in experiment [1] and in experiment [2] were 50 to 100 µM and 25 to 50 µM, respectively.
For `O=C(C(=Cc1ccc(OCc2ccccc2)cc1)SCc1cccc(Cl)c1)c1ccc(Br)cc1` [Example 146], the IC50 in experiment [1] and in experiment [2] was 1 to 10 µM each time.
Consider `O=C(C(=Cc1cc(Br)c(O)c(Br)c1)SCc1ccc(Br)cc1)c1ccc(Br)cc1` [Example 147], for which the IC50 in experiment [1] was 1 to 10 µM; in experiment [2], 10 to 25 µM.
On to `O=C(C(=Cc1cc(Cl)c(O)c(Cl)c1)SCc1ccc(Br)cc1)c1ccc(Br)cc1` [Example 148], for which the IC50 in experiment [1] and in experiment [2] was 10 to 25 µM each time.
As to `Cc1cc(C)cc(C=C(SCc2ccc(Br)cc2)C(=O)c2ccc(Cl)cc2)c1` [Example 149], the IC50 in experiment [1] and in experiment [2] was 10 to 25 µM in each case.
On to `O=C(O)c1ccc(C(=O)C(=Cc2ccc(O)c(Br)c2)SCc2ccc(Br)cc2)cc1` [Example 150], for which the IC50 in experiment [1] and in experiment [2] was 25 to 50 µM throughout.
In the case of `O=C(C(=Cc1ccc(O)c(C(=O)O)c1)SCc1ccc(Br)cc1)c1ccc(Br)cc1` [Example 151], the IC50 fell in the range of 10 to 25 µM in experiment [1] and 25 to 50 µM in experiment [2].
On the same counts, the results for `O=C(C(=Cc1ccc([N+](=O)[O-])c(O)c1)SCc1ccc(Br)cc1)c1c(F)c(F)c(F)c(F)c1F` [Example 152] are 10 to 25 µM and 1 to 10 µM.
The matching figures for `O=C(C(=Cc1ccc([N+](=O)[O-])c(O)c1)SCc1ccc(Br)cc1)c1ccc([N+](=O)[O-])c(Cl)c1` [Example 154]: 1 to 10 µM and 1 to 10 µM.
The matching figures for `O=C(C(=Cc1ccc([N+](=O)[O-])c(O)c1)SCc1ccc(Br)cc1)c1ccc(Br)cc1` [Example 155]: 10 to 25 µM and 1 to 10 µM.
Turning to `O=C(O)c1ccc(C(=O)C(=Cc2ccc([N+](=O)[O-])c(O)c2)SCc2ccc(Br)cc2)cc1` [Example 156], the IC50 in experiment [1] is 10 to 25 µM; in experiment [2], 1 to 10 µM.
As for `N#Cc1ccc(C(=O)C(=Cc2ccc([N+](=O)[O-])c(O)c2)SCc2ccc(Br)cc2)cc1` [Example 157], the concentration for half-maximal inhibition (IC50) in experiment [1] and in experiment [2] was 1 to 10 µM each time.
Turning to `O=C(C(=Cc1ccc([N+](=O)[O-])c(O)c1)SCc1ccc(Br)cc1)c1ccc([N+](=O)[O-])cc1` [Example 158], the IC50 in experiment [1] and in experiment [2] was 1 to 10 µM throughout.
Take `O=C(/C(=C\c1ccc([N+](=O)[O-])c(O)c1)SCc1ccc(Br)cc1)c1ccc(N2CCCC2)cc1` [Example 159]: the IC50 in experiment [1] and in experiment [2] was more than 100 µM in each case.
On to `O=C(/C(=C\c1ccc([N+](=O)[O-])c(O)c1)SCc1ccc(Br)cc1)c1ccc(C(F)(F)F)cc1` [Example 160], for which the IC50 in experiment [1] and in experiment [2] was 1 to 10 µM throughout.
On to `O=C(/C(=C\c1ccc([N+](=O)[O-])c(O)c1)SCc1ccc(Br)cc1)c1cc(Cl)ccc1O` [Example 161], for which the IC50 in experiment [1] and in experiment [2] was 10 to 25 µM throughout.
In the case of `CCN(CC)CCNC(=O)c1c(C)[nH]c(/C=C(/SCc2ccc(Br)cc2)C(=O)c2ccc(Br)cc2)c1C` [Example 162], the IC50 in experiment [1] and in experiment [2] was 1 to 10 µM each time.
For the molecule `CCN(CC)CCNC(=O)c1c(C)[nH]c(/C=C(/SCc2ccc(Br)cc2)C(=O)c2ccc(C(=O)O)cc2)c1C` [Example 163], the IC50 in experiment [1] and in experiment [2] was 50 to 100 µM throughout.
`CN(C)c1ccc(/C=C(/SCc2ccc(Br)cc2)C(=O)c2ccc(C(=O)O)cc2)cc1` [Example 164]: the IC50 was 50 to 100 µM in experiment [1] and 25 to 50 µM in experiment [2].
The matching figures for `O=C(O)c1ccc(C(=O)/C(=C\c2ccc(Br)c([N+](=O)[O-])c2)SCc2ccc(Br)cc2)cc1` [Example 165]: 1 to 10 µM and 1 to 10 µM.
Consider `O=C(O)c1ccc(C(=O)/C(=C\c2ccc(Br)cc2)SCc2ccc(Br)cc2)cc1` [Example 166], for which the IC50 in experiment [1] and in experiment [2] was 1 to 10 µM throughout.
In the case of `Cc1[nH]c(/C=C(/SCc2ccc(Br)cc2)C(=O)c2ccc(Br)cc2)c(C)c1C(=O)O` [Example 167], the IC50 in experiment [1] and in experiment [2] was 50 to 100 µM in each case.
Regarding `O=C(O)c1ccc(C(=O)/C(=C\c2ccc(Cl)c([N+](=O)[O-])c2)SCc2ccc(Br)cc2)cc1` [Example 168], the IC50 was 1 to 10 µM in experiment [1] and not above 1 µM in experiment [2].
On the same counts, the results for `O=C(/C(=C\c1ccc(Cl)cc1)SCc1ccc(Br)cc1)c1ccccc1Cl` [Example 169] are 25 to 50 µM and 1 to 10 µM.

In general, IC50 refers to the midpoint of a concentration-inhibition curve.
